Results published in patent US20050153923A1, “Targeted drug delivery using EphA2 or EphA4 binding moieties” (priority 2003, published 2005).
Entries after “also recorded” stand apart in the source; their conditions may differ.

How the values were obtained:
EphA2 = EphA2 expression in MDA-MB-231 cells after antisense transfection (Western blot); format: cell-based; conditions: 2 μg/ml oligonucleotide, 24 hours
MDA-MB-231 cells = test: Soft agar colonization of MDA-MB-231 cells after antisense transfection; format: cell-based
Description: Monolayers of MDA-MB-231 cells were transfected with 2 μg/ml of EphA2 antisense or inverse antisense (IAS) oligonucleotides at 37° C. for 24 hours. […] The membranes were stripped and reprobed with paxillin antibodies as a loading control (B). The relative mobility of molecular mass standards is shown on the left of panels A and B. (C) MDA-MB-231 cell monolayers, treated with antisense oligonucleotides as detailed above, were suspended in soft agar for 7 days before microscopic analysis of colony formation. […] Results are reported as colonies per high-powered field (HPF).
An antisense oligonucleotide-based approach that decreased EphA2 expression in tumor cells independent of EphA2 activation was developed. […] Inverted antisense oligonucleotides (5′-[…]-3′; SEQ ID NO:109) provided a control. The cells were transfected with oligonucleotides (2 μg/ml) using Lipofectamine PLUS Reagent (Life Technologies, Inc.) according to the manufacturer's protocol. Twenty-four hours post-transfection, the cells were divided. Half of the cells were seeded into soft agar, and the remaining cells were extracted and subjected to Western blot analysis.
MDA-MB-231 cells were suspended in soft agar. […] Colony formation was scored microscopically using an Olympus CK-3 inverted phase-contrast microscope outfitted with a 40× objective. Clusters containing at least three cells were scored as a positive. […]

MCF-7^EphA2 cells [1] = test: Soft agar colonization of MCF-7^EphA2 cells; format: cell-based; conditions: TAM 1 μM, EA2 10 μg/ml
Description: (B) MCF-7 (circles) or MCF-7^EphA2 cells (squares) were implanted into the mammary fatpad (n=15 mice per group) in the presence of supplemental estrogen.
MCF-7^EPhA2 cells were incubated in the presence of 3 μg/ml of EA2 for the time indicated prior to sample extraction and Western blot analyses with an EphA2-specific antibody (D7). (B) The membrane was stripped and re-probed with a β-catenin-specific antibody as a loading control.
(§1) Growth assays were conducted as follows. MCF-7^neo (control cells) or MCF7^EphA2 cells were seeded in 96-well plates. […] Colony formation in soft agar was performed as previously described (Zelinski et al., 2001, Cancer Res. 61: 2301-6) and scored microscopically, defining clusters of at least three cells as a positive. The data represent the average of ten separate high-power microscopic fields from each sample and representative of at least three separate experiments. Error bars represent the standard error of the mean of at least three different experiments as determined using Microsoft Excel software.
Growth MCF-7^EphA2 cells which had decreased EphA2 expression levels was assayed in soft agar.

control MCF-7 cells = test: Soft agar colonization of control MCF-7 cells; format: cell-based; conditions: TAM 1 μM; EA2 10 μg/ml; FIG. 13C
Description: as §1, with “software. […]” for “software.”

MCF-7^EphA2 cells [2] = test: Tumorigenic potential of MCF-7^EphA2 vs control cells in mammary fat pad of athymic mice under tamoxifen; format: in vivo; conditions: tamoxifen 1 mg oral gavage 6 days per week, from 17 days post-implantation; supplemental estrogen; FIG. 11B
Description: (B) MCF-7 (circles) or MCF-7^EphA2 cells (squares) were implanted into the mammary fatpad (n=15 mice per group) in the presence of supplemental estrogen. […] Tumor volume of tamoxifen treated (black circles and squares) and saline treated (white circles and squares) animals was measured at the indicated time.
Consistent with increased soft agar colonization, orthotopically implanted MCF-7^EphA2 cells formed larger, more rapidly growing tumors in vivo. Six to eight week-old athymic (nu/nu) mice were purchased from Harlan Sprague Dawley (Indianapolis, Ind.). When indicated, a controlled release estradiol pellet (0.72 mg 17β-estradiol, 60-day formulation) was injected subcutaneously via a sterile 14-gauge trocar 24 hours prior to tumor implantation and pellets were replaced every 60 days for those experiments spanning>60 days in duration. 1×10^6 MCF-7^neo or MCF7^EphA2 cells were injected into the mammary fat pad under direct visualization.

5′-CCAGCAGTACCGCTTCCTTGCCCTGCGGCCG-3′ (all phosphorothioate, sugars by position and methylation of C not given here; listed as Homo Sapiens) [EphA2 antisense oligonucleotides, phosphorothioate-modified antisense oligonucleotides unique to EphA2]
EphA2 expression / protein level after oligonucleotide transfection (EphA2): selectively decreased EphA2 expression in MDA-MB-231 cells; also recorded: decreases EphA2 protein levels
Decrease of soft agar colonization vs matched controls (MDA-MB-231 cells; 2 μg/ml oligonucleotide, 7 days in soft agar, FIG. 14C): at least 60%
Colony formation in soft agar vs inverted antisense control (MDA-MB-231 cells; P<0.002): significantly impaired

5′-GCCGCGTCCCGTTCCTTCACCATGACGACC-3′ (listed as DNA, chemistry not given here; listed as Homo sapiens) [IAS, inverted antisense control oligonucleotide, reference compound]
EphA2 expression / protein level after oligonucleotide transfection (EphA2): did not

C[C@]12CC[C@@H]3c4ccc(O)cc4CC[C@H]3[C@@H]1CC[C@@H]2O [estradiol, 17β-estradiol, reference compound]
Soft agar colonization response / tamoxifen sensitivity, MCF-7^EphA2 cells (MCF-7^EphA2 cells [1]; 1 μM 17β-estradiol, FIGS. 11A, 13C (11A also MCF-7)): overcame the inhibitory effects of tamoxifen

tamoxifen [reference compound]
Soft agar colonization response, control MCF-7 cells (control MCF-7 cells): sensitive to tamoxifen
Inhibition / decrease of soft agar colonization, MCF-7^EphA2 cells (MCF-7^EphA2 cells [1]; 14 days): 25%
Sensitivity of tumorigenic potential to tamoxifen, MCF-7^EphA2 vs control (MCF-7^neo) (MCF-7^EphA2 cells [2]): less sensitive to tamoxifen; also recorded: lower inhibitory effects of tamoxifen on MCF-7^EphA2 relative to control cells
